Among the test systems are HL-60; HOP-92; IGROV-1; M14; MDA-MB-435; Malme-3M; NCI/ADR-RES; OVCAR-3; OVCAR-4; OVCAR-5; OVCAR-8; RXF 393; SF-268; SK-MEL-28; SK-MEL-5; SNB-75; SR; U-251; UACC-257; UO-31.
Experiment in all cases: NCI anticancer screen, dose series, 48 h

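Following 48 hours of exposure in 96-well plates, responses at five concentrations were used to interpolate endpoints linearly. GI50 marks 50% less growth.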 Activity calls are given as the source filed them. Rule as the data show it: active = GI50 up to about 1.1 µM and inactive = higher. Bounds are passed on as bounds.

With `O=C(c1ccccc1)c1ccc2nc3n(c2c1)C(c1c(Cl)cccc1Cl)SC3` (stereo not given), the GI50 in the assay on HL-60 was 2.36 µM (inactive); in the assay on HOP-92, 5.08 µM (inactive); in the assay on IGROV-1, 4.48 µM (inactive); in the assay with M14, 3.3 µM (inactive); in the assay with MDA-MB-435, 1.77 µM (inactive); in the assay on Malme-3M, 2.81 µM (inactive). For the same compound, the GI50 in the assay on NCI/ADR-RES is 2.13 µM (inactive); in the assay on OVCAR-3 it was 4.68 µM (inactive); with OVCAR-4, 7.45 µM (inactive); in the assay with OVCAR-5 it was 3.95 µM (inactive); in the assay with OVCAR-8, 6.65 µM (inactive); in the assay on RXF 393, 5.94 µM (inactive). Moreover, the GI50 is 4.79 µM (inactive) in the assay with SF-268; 10.4 µM (inactive) in the assay on SK-MEL-28; 3.24 µM (inactive) with SK-MEL-5; 2.34 µM (inactive) with SNB-75; 1.43 µM (inactive) in the assay on SR; 5.58 µM (inactive) with U-251. Further, the results for the GI50 with UACC-257 and with UO-31 were 13.6 µM (inactive) and 3.17 µM (inactive), respectively.
Consider `C1=N\CCNCC/N=C\c2ccc(cc2)OCc2cccc(n2)COc2ccc/1cc2`, for which the GI50 with HL-60 was > 100 µM (inactive); in the assay on HOP-92, > 100 µM (inactive); in the assay on IGROV-1, 66.7 µM (inactive); in the assay with M14 it was 77.6 µM (inactive); with MDA-MB-435 it was > 100 µM (inactive); in the assay on Malme-3M it was 90.8 µM (inactive). Moreover, the GI50 is 63.1 µM (inactive) with NCI/ADR-RES; > 100 µM (inactive) in the assay with OVCAR-3; 97.3 µM (inactive) with OVCAR-4; > 100 µM (inactive) in the assay with OVCAR-5; 39.5 µM (inactive) in the assay on OVCAR-8; 98.9 µM (inactive) in the assay on RXF 393. Moreover, the GI50 with SF-268 is 22.2 µM (inactive); in the assay with SK-MEL-28, > 100 µM (inactive); in the assay on SK-MEL-5, 65.8 µM (inactive); with SNB-75 it was 23 µM (inactive); with SR, > 100 µM (inactive); in the assay with U-251, 32 µM (inactive). In addition, the GI50 with UACC-257 and with UO-31 was > 100 µM (inactive) each time.
`COC(=O)[C@H](Cc1ccccc1)NC(=O)c1ccc(CNC(=O)/C=C/c2ccc(OCc3ccccc3)cc2)cc1`: the GI50 with HL-60 is < 0.01 µM (active); in the assay on HOP-92, 2.45 µM (inactive); with IGROV-1, 2.7 µM (inactive); with M14, 2.44 µM (inactive); in the assay on MDA-MB-435 it was 2.62 µM (inactive); with Malme-3M, 3.5 µM (inactive). Also, the GI50 in the assay with NCI/ADR-RES is 30.4 µM (inactive); with OVCAR-3, 10.7 µM (inactive); in the assay with OVCAR-4, 6.55 µM (inactive); in the assay on OVCAR-5, 38.2 µM (inactive); in the assay with OVCAR-8, 13.3 µM (inactive); with RXF 393, 6.34 µM (inactive). Besides, the GI50 with SF-268 is 10.8 µM (inactive); in the assay on SK-MEL-28, 4.49 µM (inactive); with SK-MEL-5, 7.87 µM (inactive); in the assay with SNB-75, 13.8 µM (inactive); in the assay on SR it was 12.1 µM (inactive); with U-251, 18.1 µM (inactive). The GI50 was 2.49 µM (inactive) with UACC-257 and 14 µM (inactive) in the assay with UO-31.
Regarding `O=S(=O)(c1ccccc1)[C@H]1[C@@H]2O[C@@H]2C[C@@H]1O`, the GI50 in the assay with HL-60, with HOP-92, in the assay on IGROV-1, in the assay with M14, in the assay on MDA-MB-435 and with Malme-3M was > 100 µM (inactive) in each case. In addition, the GI50 with NCI/ADR-RES, in the assay with OVCAR-3, with OVCAR-4, with OVCAR-5, with OVCAR-8 and in the assay on RXF 393 was > 100 µM (inactive) in each case. The GI50 is > 100 µM (inactive) in the assay with SF-268; > 100 µM (inactive) in the assay on SK-MEL-28; > 100 µM (inactive) in the assay on SK-MEL-5; 47.4 µM (inactive) in the assay with SNB-75; > 100 µM (inactive) in the assay on SR; > 100 µM (inactive) in the assay on U-251. Further, the GI50 in the assay with UACC-257 and in the assay with UO-31 was > 100 µM (inactive) each time.
For `O=C1NC(Nc2cccc(Cl)c2)=N/C1=C\c1ccc(Cl)c(Cl)c1`, the GI50 in the assay with HL-60 is 1.95 µM (inactive); with HOP-92, 3.48 µM (inactive); in the assay on IGROV-1, 5.66 µM (inactive); in the assay with M14, 4.42 µM (inactive); in the assay on MDA-MB-435 it was 4.85 µM (inactive); in the assay on Malme-3M, 14.1 µM (inactive). For the same compound, the GI50 with NCI/ADR-RES was 4.04 µM (inactive); in the assay with OVCAR-3 it was 5.14 µM (inactive); with OVCAR-4, 1.9 µM (inactive); with OVCAR-5 it was 7.91 µM (inactive); in the assay with OVCAR-8 it was 4.34 µM (inactive); in the assay on RXF 393, 3.21 µM (inactive). Further, the GI50 with SF-268 is 4.94 µM (inactive); with SK-MEL-28 it was 12.7 µM (inactive); in the assay with SK-MEL-5, 6.18 µM (inactive); with SNB-75 it was 13.3 µM (inactive); in the assay with SR, 2.82 µM (inactive); with U-251, 4.02 µM (inactive). For the same compound, the results for the GI50 in the assay on UACC-257 and in the assay on UO-31 were 8.07 µM (inactive) and 7.29 µM (inactive), respectively.
As for `O=c1c(Cl)nsnc1Cl`, the GI50 in the assay with HL-60 is 0.787 µM (active); with HOP-92, 0.665 µM (active); in the assay with IGROV-1, 16.4 µM (inactive); in the assay on M14, 5.01 µM (inactive); in the assay with MDA-MB-435 it was 14.2 µM (inactive); with Malme-3M, 6.38 µM (inactive). In addition, the GI50 in the assay with NCI/ADR-RES was 40.1 µM (inactive); in the assay on OVCAR-3 it was 5.69 µM (inactive); in the assay on OVCAR-4 it was 5.15 µM (inactive); with OVCAR-5, 20.1 µM (inactive); in the assay with OVCAR-8 it was 36.1 µM (inactive); in the assay on RXF 393, 12.1 µM (inactive). Moreover, the GI50 was 26.4 µM (inactive) with SF-268; 18.3 µM (inactive) in the assay on SK-MEL-28; 16.5 µM (inactive) in the assay with SK-MEL-5; 22.6 µM (inactive) with SNB-75; 1.95 µM (inactive) in the assay on SR; 15.1 µM (inactive) in the assay on U-251. Also, the GI50 is 10.4 µM (inactive) in the assay on UACC-257 and 6.4 µM (inactive) in the assay on UO-31.
In the case of `Cc1cc([C@H](C#N)c2nc3ccccc3s2)nc(Cl)n1`, the GI50 in the assay on HL-60 was 3.67 µM (inactive); in the assay on HOP-92 it was 2.32 µM (inactive); with IGROV-1, 3.52 µM (inactive); in the assay on M14 it was 5.57 µM (inactive); in the assay on MDA-MB-435 it was 2.99 µM (inactive); in the assay with Malme-3M, 3.81 µM (inactive). In addition, the GI50 is 3.08 µM (inactive) in the assay on NCI/ADR-RES; 4.84 µM (inactive) in the assay on OVCAR-3; 5.82 µM (inactive) in the assay with OVCAR-4; 16.3 µM (inactive) in the assay on OVCAR-5; 3.18 µM (inactive) in the assay on OVCAR-8; 7.4 µM (inactive) in the assay with RXF 393. Besides, the GI50 with SF-268 was 5.01 µM (inactive); in the assay with SK-MEL-28, 6.67 µM (inactive); in the assay on SK-MEL-5 it was 1.79 µM (inactive); in the assay with SNB-75 it was 2.21 µM (inactive); with SR it was 1.31 µM (inactive); in the assay on U-251 it was 2.86 µM (inactive). In addition, the GI50 was 5.41 µM (inactive) in the assay on UACC-257 and 4.39 µM (inactive) with UO-31.

(Values after ChEMBL document CHEMBL1201862, “PubChem BioAssay data set” (2004).)
